Test results from patent US10435375B2, “CXCR4 chemokine receptor modulators” (NORTHWESTERN UNIVERSITY, priority 2015, dated 2019).

How the values were obtained:
Format in all cases: cell-based
KT1 cells = assay: Cell viability assay measuring colony forming units of KT1 cells, with imatinib; conditions: combination with imatinib
Protocol: FIG. 21. Cell viability assay measuring colony forming units of KT1 cells. Cells were treated with kinase inhibitor imatinib, the indicated CXCR4 agent, or a combination, at the indicated concentrations.

[1] = system: cells from AML patient #2; assay: Cell viability assay measuring colony forming units, cells from AML patient #2, with Ara-C; conditions: AML patient #2 cells; combination with Ara-C
Protocol: FIG. 22. Cell viability assay measuring colony forming units of from AML patient #2. Cells were treated with cytotoxic agent Ara-C, the indicated CXCR4 agent, or a combination.

CXCR4 = CXCR4 (Homo sapiens, UniProt P61073); assay: Calcium imaging ((Ca)i mobilization) assay, fura-2, C8161 melanoma cells; parameters: human melanoma cell line C8161 was initially used, which expresses numerous human CXCR4 receptors; endogenous in cells; host or cells: C8161 human melanoma cells
Text: The initial assay for examining the activity of different molecules was based on the fact that activation of CXCR4 receptors produces an increase in the intracellular free Ca^2+ concentration (Ca)i. This signal can easily be observed using a fluorescent Ca^2+ sensing dye such as fura-2. The quantitative nature of this assay makes it ideal for screening purposes. Moreover, the assay can also distinguish potential antagonists from potential agonists. The aggressive human melanoma cell line C8161 was initially used, which expresses numerous human CXCR4 receptors and produces strong (Ca)I signals when stimulated with SDF-1 (FIG. 3). In the assay, cells were usually stimulated twice with SDF-1. […] To test a drug, the compound in question was usually added prior to the second stimulation with SDF-1. At this point it was possible to observe whether the compound itself acted as an agonist by giving its own response or if it reduced the magnitude of the second response to SDF-1. […] Each of the four antagonists were then assayed at multiple concentrations to obtain a dose-response relationship and an estimated IC50. Antagonists NUCC-388, 397, 392, and 51420 had IC50 values of 0.3 μM, 3 μM, 1 μM, and 1 μM respectively.

Sequence of CXCR4 (P61073 whole entry): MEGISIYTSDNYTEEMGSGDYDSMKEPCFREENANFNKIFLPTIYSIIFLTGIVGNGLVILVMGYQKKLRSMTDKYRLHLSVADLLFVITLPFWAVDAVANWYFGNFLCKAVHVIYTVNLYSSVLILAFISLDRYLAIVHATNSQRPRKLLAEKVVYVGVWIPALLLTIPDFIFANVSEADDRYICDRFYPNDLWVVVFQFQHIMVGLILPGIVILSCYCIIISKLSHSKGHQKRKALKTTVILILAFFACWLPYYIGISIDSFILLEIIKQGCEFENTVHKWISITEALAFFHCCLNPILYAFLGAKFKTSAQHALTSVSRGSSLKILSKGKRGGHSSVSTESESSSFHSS

- compound's (Ca)i response in presence of CXCR4 antagonist AMD3100 (CXCR4; C8161 cells, AMD3100 1 μM where stated): inhibited by AMD3100
- own (Ca)i response (agonist effect) (CXCR4; C8161 cells, compounds 10 μM where stated, SDF-1 100 nM): robust agonist activity
- Ca^2+ Assay (CXCR4; Table 1, calcium imaging behavior): Agonist
- Pharmacology (CXCR4; Table 2, agonist or antagonist): Agonist
SMILES: CCCn1nc(C(=O)N(C)C)c2c1CCC(NCc1ccc(F)cc1)C2 (stereo not drawn) [NUCC-0054121, 5-((4-Fluorobenzyl)amino)—N,N-dimethyl-1-propyl-4,5,6,7-tetrahydro-1H-indazole-3-carboxamide]
- effect on cell killing by imatinib (colony forming units) (KT1 cells): enhanced the cell killing ability of imatinib
- effect on cell killing by Ara-C (colony forming units) [1]: enhanced the cell killing ability of Ara-C
